Test results published in publication PMC10252837, “A Novel Time-Resolved Fluorescence Resonance Energy Transfer Assay for the Discovery of Small-Molecule Inhibitors of HIV-1 Tat-Regulated Transcription” (International Journal of Molecular Sciences, 2023).
Read-outs that look alike come from different tables or passages of the source.

How the values were obtained:
HIV-1NL4-3 = assay: HIV-1 infectivity in TZM-bl cells (LTR-driven F-Luc); assay type: cell-based; conditions: for IC50: read-out: IC50 of Infectivity
Description: (§1) (A) (Upper panel) Doxycycline (Dox)-inducible Tat-expressing bl-DTR cells cultured in 96-well plates treated with two-fold serial dilutions of each compound in the presence of Dox (50 ng/mL). At 24 h after treatment, the activity of firefly luciferase (F-Luc), indicating Tat activity, was determined as described in the Materials and Methods section. (Bottom panel) TZM-bl cells were treated with two-fold serial dilutions of the indicated compound and then infected with the HIV-1NL4-3 strain at a multiplicity of infection (MOI) of 1. At 24 h after infection, the viral infectivity and cell viability were determined as described in the Materials and Methods section. […] (B) 2 × 10^5 TZM-bl cells growing in 6-well plates were infected with HIV-1 (MOI = 1), transfected with a Tat-expressing plasmid (2 μg) or treated with PMA ([…]) upon indicated compounds at indicated concentrations, respectively. At 24 h after treatment, LTR promoter activity was determined via a Bright-Glo Luciferase Assay Kit. The relative activities are represented as the mean ± SD (n = 3) compared with the DMSO vesicle. (C) The biotinylated TAR RNA (2 nM) was incubated with ARM peptide (100 nM) in the presence of increasing amounts of the hit compound and separated on a 3–12% native polyacrylamide gel. The mobility of biotinylated TAR RNA was detected by chemiluminescence.
(§2) To determine the inhibitory effect of hit compounds on HIV-1 infection, we used TZM-bl cells (also referred to as JC53BL-13), which express HIV-1 receptors and contain the LTR-driven F-Luc gene controlled by HIV-1 infection, as described previously but with some minor modifications. Briefly, 1 × 10^4 TZM-bl cells cultured on 96-well plates were treated in triplicate wells with 1:2 serially diluted compounds at concentrations ranging from 0 to 12.5 µM. Subsequently, the cells were infected with HIV-1NL4-3 virus obtained from the transfection of 293T cells at a multiplicity of infection (MOI) of 1. At 24 h after infection, the inhibitory effect of the hit compounds on infectivity was determined using the Bright-Glo Luciferase Assay Kit (Promega). The dose–response data are expressed as a relative percentage compared to the DMSO control (vehicle). The inhibitory effects of the hit compounds on HIV-1 replication were determined as previously described. Briefly, 4 × 10^5 PBMCs pre-activated with phytohemagglutinin M (PHA-M) were washed with fresh media and then infected with HIV-1NL4-3 or HIV-1AD8 at an MOI of 0.1 by spinoculation for 2 h. After infection, the cells were treated with hit compounds at the indicated concentrations at 3–5 days after treatment, and the inhibitory effect of hit compounds on viral replication was determined by the titration of virions from the cell supernatant using a p24 […]™ Assay Kit (PerkinElmer) according to the manufacturer’s instructions. Cell viability was determined using resazurin-based PrestoBlue™ cell viability reagent (Thermo Fisher Scientific, Waltham, MA, USA) according to the manufacturer’s instructions. The data are presented as relative percentages compared to the DMSO control (vehicle). The experiments were performed in triplicate.

[1] = system: Tat activity (Tat-induced viral transcription); assay: microbe, parasite or virus in culture; assay type: cell-based, HIV-1; conditions: for IC50: read-out: IC50 of Tat Activity
Description: as §1
The inhibitory effect of hit compounds on Tat-mediated transcription was determined using doxycycline (Dox)-inducible Tat-expressing TZM-bl cells that express the LTR-driven firefly luciferase (F-Luc) gene under the control of Tat upon Dox treatment, as described previously but with minor modifications. In brief, 1 × 10^4 of the cells were cultured in 96-well plates, treated with compounds at a concentration of 10 µM (in the second round of screening), and then treated with Dox (final concentration: 50 ng/mL). After 24 h, the inhibitory effect of the hit compounds on Tat activity was determined by measuring F-Luc activity using a Bright-Glo Luciferase Assay Kit (Promega, Madison, WI, USA). For the dose–response assay, cells cultured in 100 μL medium were treated with 50 μL of 1:2 serially diluted compounds at concentrations ranging from 0 to 12.5 µM and then treated with 50 μL of Dox (final concentration: 50 ng/mL). At 24 h post-treatment, the F-Luc activity was determined as described above. All luminescence assays were carried out in a SpectraMax Paradigm Microplate Reader (Molecular Devices, San Jose, CA, USA), and the data were expressed as a relative percentage (%) compared to the DMSO control (vehicle) in the presence of Dox. The experiments were performed in triplicate.

TZM-bl cells = assay: in vitro; conditions: TZM-bl cells
Description: as §1
as §2, with “Subsequently, the cells were infected with HIV-1NL4-3 virus obtained from the transfection of 293T cells at a multiplicity of infection (MOI) of 1.” left out, “Briefly, 4 × 10^5 PBMCs pre-activated with phytohemagglutinin M (PHA-M) were washed with fresh media and then infected with HIV-1NL4-3 or HIV-1AD8 at an MOI of 0.1 by spinoculation for 2 h.” left out, “The data are presented as relative percentages compared to the DMSO control (vehicle). The experiments were performed in triplicate.” left out

[2] = system: Tat (ARM)-TAR RNA interaction; conditions: 10-fold excess competitor, 50 nM analytes
Description: To test whether our assay is applicable for screening specific inhibitors of the Tat-TAR RNA interaction, inhibition assays were performed with known inhibitors of the Tat-TAR RNA interaction. […] A dose–response competition assay was conducted at inhibitor concentrations of 0–100 μM to determine their inhibitory curves in our assay. […] Additionally, a dose-responsive competition assay using RNA fragments was performed to validate the specificity of the assay.
Data are expressed as the mean ± SD (n = 3) compared to a control lacking an RNA competitor.
The indicated concentrations of ARM and Cy5-TAR RNA fragments were incubated in 20 μL of 1× LANCE ultra assay buffer in 384-well microtiter plates with or without inhibitor (competitor) for 30 min at 20 °C in the dark. […] The reaction was performed in a final volume of 25 μL. Small volumes of the reaction solution were added automatically using Assist-Plus (Integra Bioscience, Zisers, Switzerland). After adding all the assay components, the plates were sealed with a clear cover. The ARM-TAR RNA interaction signal was measured in an EnSight multimode plate reader (PerkinElmer) using the LANCE protocol of the time-resolved fluorescence (TRF) mode in the Kaleido software (PerkinElmer), according to the manufacturer’s protocol. Briefly, the excitation light was directed to the donor (Eu) from the Xenon flash lamp at 320 nm selected by an optical filter, and then, an integration time of 100 μs and a delay time of 70 μs were provided to remove short-lived background signals; subsequently, two emission lights were detected at 615 nm for the donor (Eu) and 665 nm for the acceptor (Cy5). The TRF was measured from the top using an excitation filter and emission monochromators in a single measurement mode. The TR-FRET output signal was expressed as the emission ratio of acceptor/donor (665/615 nm × 1000) fluorescence counts. The fold activity of the TR-FRET signal for ARM-TAR RNA interaction was calculated compared to the control reaction lacking the ARM peptide.

HIV-1NL4-3 (X4-tropic) = assay: HIV-1 replication assay in PBMCs (p24), HIV-1NL4-3; assay type: cell-based; conditions: PHA-preactivated PBMCs, MOI 0.1, 72 h; 460-G06 at 12.5-100 nM
Description: (§3) Figure 6 Phytohemagglutinin-preactivated peripheral blood mononuclear cells were infected with HIV-1NL4-3 (A) or HIV-1AD8 (B) at an MOI of 0.1 for 2 h and then treated with compounds at indicated concentrations for 72 h. […] The data are expressed as the mean ± SD (n = 3). * p < 0.05 indicates a comparison with the cells treated with DMSO (vehicle). ARVs, anti-retroviral drugs; EFV, efavirenz; DOL, dolutegravir; AZT, azidothymidine.
(§4) The experiments were performed in triplicate.

TAR RNA = assay: RNA gel mobility shift assay (biotinylated TAR RNA and ARM peptide); assay type: binding, HIV-1; conditions: 2 nM biotinylated TAR RNA, 100 nM ARM peptide
Description: To determine the inhibitory effect of hit compounds on the Tat (ARM)-TAR RNA interaction, a gel shift assay was carried out using the LightShift Chemiluminescent RNA EMSA Kit (Thermo Scientific) according to the manufacturer’s instructions, but with minor modifications suitable for our experiment. Briefly, 2 nM of 5′-biotinylated TAR RNA (nt 31) and 100 nM of ARM peptide were incubated with increasing amounts of hit compounds in the 1× REMSA binding buffer (10 mM HEPES pH 7.5, 10 mM MgCl2, 5 mM KCl, 1 mM DTT, and v/v 5 % glycerol) supplemented with 8 units/reaction of RNase OUT (Invitrogen) (final: 20 µL) at 20 °C for 20 min. Subsequently, the reaction was separated on a 3–12% native gradient PAGE gel. The RNA was then transferred to a nylon membrane to detect the mobility-shifted biotinylated TAR RNA using StAV-horseradish peroxidase conjugate. Chemiluminescence was detected using a GBox Chemi chemi-luminometer (Syngene, Fredrick, MD, USA).

HIV-1AD8 (R5-tropic) = assay: HIV-1 replication assay in PBMCs (p24), HIV-1AD8; assay type: cell-based; conditions: PHA-preactivated PBMCs, MOI 0.1, 72 h; 460-G06 at 12.5-100 nM
Description: as §3, §4

[3] = TZM-bl cells, HIV-1NL4-3 MOI 1, 24 h, 0-12.5 μM
[4] = bl-DTR cells, Dox 50 ng/mL, 24 h, F-Luc, 0-12.5 μM

Compound	IC50 (HIV-1NL4-3; [3])	dose response of Tat activity (F-Luc), in words ([1]; 0-12.5 μM, bl-DTR cells)	IC50 [1, 4]	other results
Cc1ccc(Nc2cc3c(n[n+]([O-])n3CCCN3CCCCC3)c3c2C(=O)c2ccccc2C3=O)cc1 [Hit 464-A09, 6,11-Dioxo-3-(3-(piperidin-1-yl)propyl)-5-(p-tolylamino)-6,11-dihydro-3H-anthra[1,2-d][1,2,3]triazole 2-oxide]	2.03 ± 0.132 µM	gradual dose-responsive inhibitory effect on Tat activity	2.27 ± 0.518 µM	inhibitory effect on HIV-1, in words (HIV-1NL4-3; 3.13 μM): strong inhibitory effect; inhibitory effect on Tat, in words ([1]; 3.13 μM): strong inhibitory effect; toxicity, in words (TZM-bl cells; 6.25 μM): sudden severe toxicity; CC50 (TZM-bl cells; concentration that reduces cell viability by 50%): 3.36 ± 0.16 µM
GISYGDKKDDQEERA [mt ARM]	–	–	–	TR-FRET signal in peptide/protein competition assay, in words [2]: neither mt ARM nor BSA affected their interaction signals
CC(C)C(CNc1nc(-c2ccsc2)nc2ccccc12)N1CCN(C)CC1 (centres unmarked) [Hit 461-H04, N-(3-Methyl-2-(4-methylpiperazin-1-yl)butyl)-2-(thiophen-3-yl)quinazolin-4-amine]	–	gradual dose-responsive inhibitory effect on Tat activity	10.1 ± 2.73 µM	–
Cc1onc(-c2ccccn2)c1C(=O)Nc1ncc(C2CCNCC2)s1 [Hit 459-G07, 5-Methyl-N-(5-(piperidin-4-yl)thiazol-2-yl)-3-(pyridin-2-yl)isoxazole-4-carboxamide]	–	gradual dose-responsive inhibitory effect on Tat activity	3.93 ± 0.338 µM	–
Cc1nn2c(nc(NC3CCCN(C)C3)c3ccccc32)c1Cl (centres unmarked) [Hit 463-H08, 3-chloro-2-methyl-N-(1-methylpiperidin-3-yl)pyrazolo[1,5-a]quinazolin-5-amine]	–	gradual inhibition of F-Luc activity	–	inhibition of viral replication, in words (HIV-1NL4-3 (X4-tropic)): less inhibitory effect on viral replication; IC50 (HIV-1NL4-3; Human immunodeficiency virus 1, TZM-bl, 24 h): 8.05 ± 0.488 µM; SI (selectivity index) (HIV-1NL4-3; TZM-bl cells): >1.552; Kd (TAR RNA): ~1000 µM; dissociation of ARM from TAR RNA, in words (TAR RNA): relatively less dissociation effect; IC50 ([1]; Human immunodeficiency virus 1, 24 h): 2.37 ± 0.16 µM; inhibition of viral replication, in words (HIV-1AD8 (R5-tropic)): less inhibitory effect on viral replication
N=c1n(Cc2ccc(F)cc2F)c2ccccc2n1CC(O)Cn1c(-c2ccc(C(F)(F)F)cc2)noc1=O (centres unmarked) [Hit 460-F06, 4-(3-(3-(2,4-Difluorobenzyl)-2-imino-2,3-dihydro-1H-benzo[d]imidazol-1-yl)-2-hydroxypropyl)-3-(4-(trifluoromethyl)phenyl)-1,2,4-oxadiazol-5(4H)-one]	–	–	3.2 ± 0.438 µM	–
O=C(O)C1CCCc2sc(C=Cc3cc(Cl)c4c(c3)OCCO4)nc21 (centres unmarked) [Hit 458-F08, 2-(2-(8-Chloro-2,3-dihydrobenzo[b][1,4]dioxin-6-yl)vinyl)-4,5,6,7-tetrahydrobenzo[d]thiazole-4-carboxylic acid]	1.29 ± 0.384 µM	gradual dose-responsive inhibitory effect on Tat activity	–	–
Cc1ccc(-c2csc3ncnc(NCCCc4n[nH]c(N)c4C#N)c23)cc1 [Hit 463-B11, 5-Amino-3-(3-(5-p-tolylthieno[2,3-d]pyrimidin-4-ylamino)propyl)-1H-pyrazole-4-carbonitrile]	5.03 ± 0.31 µM	gradual dose-responsive inhibitory effect on Tat activity	6.82 ± 1.88 µM	–
